Among the data in patent US9862717B2 (Merck Patent GmbH, priority 2014, dated 2018) are IC50 values, retold here.

For this test, the target named is T1, CDK8/CycC (Homo sapiens, UniProt P49336).
T1 construct: purchased Invitrogen PV4402
Briefly: FRET based Lanthascreen binding competition assay for CDK8 inhibitory activity. The note with it: CDK8 co-expressed with CycC, class symbols. In a few lines:
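Competition binding of a dye-labeled ATP-competitive Alexa647 probe to CDK8 co-expressed with CycC, Eu-labeled via biotinylated anti-His antibody/streptavidin.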

Like-named read-outs stand apart in the source and are kept apart here. Where only a bound is given, the exact number is not on record here.

The IC50 is the concentration at which inhibition is half-maximal.

T1 sequence (P49336 whole entry): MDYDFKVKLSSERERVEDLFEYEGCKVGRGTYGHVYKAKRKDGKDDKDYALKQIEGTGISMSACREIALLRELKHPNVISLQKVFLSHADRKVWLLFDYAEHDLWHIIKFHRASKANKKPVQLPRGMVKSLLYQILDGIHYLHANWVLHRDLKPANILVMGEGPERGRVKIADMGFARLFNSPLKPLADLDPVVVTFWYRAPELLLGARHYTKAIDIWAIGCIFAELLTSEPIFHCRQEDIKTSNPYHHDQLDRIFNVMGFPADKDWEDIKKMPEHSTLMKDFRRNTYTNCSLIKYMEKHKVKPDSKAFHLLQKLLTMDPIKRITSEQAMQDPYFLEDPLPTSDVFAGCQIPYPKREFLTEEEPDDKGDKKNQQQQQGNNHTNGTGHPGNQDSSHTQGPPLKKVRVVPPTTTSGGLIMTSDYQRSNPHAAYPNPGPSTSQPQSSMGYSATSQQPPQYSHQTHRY
T1 sequence (P24863 whole entry partner): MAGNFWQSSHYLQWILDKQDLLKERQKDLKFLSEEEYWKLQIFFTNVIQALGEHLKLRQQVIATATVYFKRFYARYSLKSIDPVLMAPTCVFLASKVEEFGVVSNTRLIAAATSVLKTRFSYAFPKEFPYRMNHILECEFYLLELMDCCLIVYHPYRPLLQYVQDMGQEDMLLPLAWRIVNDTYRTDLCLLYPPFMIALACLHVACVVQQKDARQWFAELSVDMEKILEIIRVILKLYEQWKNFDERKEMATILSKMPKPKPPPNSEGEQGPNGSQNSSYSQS

Turning to `CC(C)c1ccc([C@@H]2CCCN2C(=O)c2ccc3[nH]nc(N)c3c2)cc1` [compound 194, (3-Amino-1H-indazol-5-yl)-[(S)-2-(4-isopropyl-phenyl)-pyrrolidin-1-yl]-methanone], the IC50 (read-out: IC50) was less than 0.01 µM. `CC(C)c1ccc([C@H]2CCCN2C(=O)c2ccc3[nH]nc(N)c3c2)cc1` [compound 195, (3-Amino-1H-indazol-5-yl)-[(R)-2-(4-isopropyl-phenyl)-pyrrolidin-1-yl]-methanone]: the 50% inhibitory concentration (IC50) (read-out: IC50) is 0.1 to 1 µM.

On to `Cc1n[nH]c2ncc(C(=O)N3CCC[C@H]3c3ccc(C(C)C)cc3)cc12` [compound 196, [(S)-2-(4-Isopropyl-phenyl)-pyrrolidin-1-yl]-(3-methyl-1H-pyrazolo[3,4-b]pyridin-5-yl)-methanone], for which the IC50 (read-out: IC50) is less than 0.01 µM. In the case of `Cc1n[nH]c2ncc(C(=O)N3CCC[C@@H]3c3ccc(C(C)C)cc3)cc12` [compound 197, [(R)-2-(4-Isopropyl-phenyl)-pyrrolidin-1-yl]-(3-methyl-1H-pyrazolo[3,4-b]pyridin-5-yl)-methanone], the IC50 (read-out: IC50) fell in the range of 0.1 to 1 µM.

In the case of `Cc1n[nH]c2ncc(C(=O)N3CC[C@](O)(c4ccccc4)C3)cc12` [compound 198, ((S)-3-Hydroxy-3-phenyl-pyrrolidin-1-yl)-(3-methyl-1H-pyrazolo[3,4-b]pyridin-5-yl)-methanone], the IC50 (read-out: IC50) lay in the range of 1 to 10 µM. With `Cc1n[nH]c2ncc(C(=O)N3CCC3c3ccc(F)cc3)cc12` (stereo not drawn) [compound 200, [2-(4-Fluoro-phenyl)-azetidin-1-yl]-(3-methyl-1H-pyrazolo[3,4-b]pyridin-5-yl)-methanone], for the setting “read-out: IC50”, the IC50 lay in the range of 0.1 to 1 µM. As for `Cc1n[nH]c2ccc(C(=O)N3CC[C@H]3c3ccc(Cl)cc3)cc12` [compound 202, [(S)-2-(4-Chloro-phenyl)-azetidin-1-yl]-(3-methyl-1H-indazol-5-yl)-methanone], the IC50 (IC50 [μM]) was less than 0.01 µM. Consider `Cc1n[nH]c2cc(F)c(C(=O)N3CCC[C@@H]3c3ccc(Cl)cc3)cc12` [compound 203, [(R)-2-(4-Chloro-phenyl)-pyrrolidin-1-yl]-(6-fluoro-3-methyl-1H-indazol-5-yl)-methanone], for which the IC50 (read-out: IC50) was 1 to 10 µM. On the same count and under the same terms, with `Cc1n[nH]c2ccc(C(=O)N3CC[C@H]3c3ccc(F)cc3)cc12` [compound 204, [(S)-2-(4-Fluoro-phenyl)-azetidin-1-yl]-(3-methyl-1H-indazol-5-yl)-methanone] the figure was less than 0.01 µM.

`Cc1n[nH]c2ccc(C(=O)N3CC[C@@H]3c3ccc(Cl)cc3)cc12` [compound 205, [(R)-2-(4-Chloro-phenyl)-azetidin-1-yl]-(3-methyl-1H-indazol-5-yl)-methanone] gave an IC50 (IC50 [μM]) of 0.1 to 1 µM. Consider `Cc1n[nH]c2cc(F)c(C(=O)N3CCC[C@H]3c3ccc(Cl)cc3)cc12` [compound 206, [(S)-2-(4-Chloro-phenyl)-pyrrolidin-1-yl]-(6-fluoro-3-methyl-1H-indazol-5-yl)-methanone], for which the IC50 (read-out: IC50) is less than 0.01 µM. Still for that read-out and setting: with `Cc1n[nH]c2ccc(C(=O)N3CC[C@@H]3c3ccc(F)cc3)cc12` [compound 207, [(R)-2-(4-Fluoro-phenyl)-azetidin-1-yl]-(3-methyl-1H-indazol-5-yl)-methanone] the figure was 0.01 to 0.1 µM; with `Nc1n[nH]c2ccc(C(=O)N3CCC[C@H]3c3ccc(C(F)(F)F)cc3)cc12` [compound 208, (3-Amino-1H-indazol-5-yl)-[(S)-2-(4-trifluoromethyl-phenyl)-pyrrolidin-1-yl]-methanone], 0.01 to 0.1 µM.

On to `Nc1n[nH]c2ccc(C(=O)N3CCC[C@@H]3c3ccc(C(F)(F)F)cc3)cc12` [compound 209, (3-Amino-1H-indazol-5-yl)-[(R)-2-(4-trifluoromethyl-phenyl)-pyrrolidin-1-yl]-methanone], for which the IC50 (read-out: IC50) fell in the range of 0.1 to 1 µM. Still for that read-out and setting: for `CSc1n[nH]c2ccc(C(=O)N3CCC[C@H]3c3ccc(Cl)cc3)cc12` [compound 210, [(S)-2-(4-Chloro-phenyl)-pyrrolidin-1-yl]-(3-methylsulfanyl-1H-indazol-5-yl)-methanone] the value was less than 0.01 µM; for `COC(=O)C1CCN(C(=O)c2cnc3[nH]nc(C)c3c2)C(c2ccccc2)C1` (stereo not drawn) [compound 211, 1-(3-Methyl-1H-pyrazolo[3,4-b]pyridine-5-carbonyl)-2-phenyl-piperidine-4-carboxylic acid methyl ester], 0.1 to 1 µM. For `Cc1n[nH]c2ncc(C(=O)N3CCO[C@@](C)(c4ccc(Cl)cc4)C3)cc12` [compound 214, [(S)-2-(4-Chloro-phenyl)-2-methyl-morpholin-4-yl]-(3-methyl-1H-pyrazolo[3,4-b]pyridin-5-yl)-methanone], the IC50 (read-out: IC50) lay within 1 to 10 µM. As to `Cc1n[nH]c2ncc(C(=O)N3CCNC(=O)[C@H]3c3ccc(F)cc3)cc12` [compound 215, (R)-3-(4-Fluoro-phenyl)-4-(3-methyl-1H-pyrazolo[3,4-b]pyridine-5-carbonyl)-piperazin-2-one], the IC50 (read-out: IC50) is 1 to 10 µM. On to `O=C(c1ccc2[nH]nc(F)c2c1)N1CCC[C@H]1c1ccc(Cl)cc1` [compound 216, [(S)-2-(4-Chloro-phenyl)-pyrrolidin-1-yl]-(3-fluoro-1H-indazol-5-yl)-methanone], for which the IC50 (read-out: IC50) is less than 0.01 µM. Turning to `O=C(c1ccc2[nH]nc(Cl)c2c1)N1CCC[C@H]1c1ccc(Cl)cc1` [compound 217, (3-Chloro-1H-indazol-5-yl)-[(S)-2-(4-chloro-phenyl)-pyrrolidin-1-yl]-methanone], for the setting “read-out: IC50”, the half-inhibitory concentration (IC50) is 0.01 to 0.1 µM. Same read-out and setting: for `O=C(c1ccc2[nH]nc(Cl)c2c1)N1CCC(c2ccc(Cl)cc2)C1` (stereo not drawn) [compound 218, (3-Chloro-1H-indazol-5-yl)-[3-(4-chloro-phenyl)-pyrrolidin-1-yl]-methanone] the value was 0.01 to 0.1 µM; for `O=C(c1ccc2[nH]nc(Cl)c2c1)N1CCCC1c1ccc(C(F)(F)F)cc1` (stereo not drawn) [compound 219, (3-Chloro-1H-indazol-5-yl)-[2-(4-trifluoromethyl-phenyl)-pyrrolidin-1-yl]-methanone], 0.01 to 0.1 µM. On the same count and under the same terms, for `CS(=O)(=O)c1n[nH]c2ccc(C(=O)N3CCC[C@H]3c3ccc(Cl)cc3)cc12` [compound 220, [(S)-2-(4-Chloro-phenyl)-pyrrolidin-1-yl]-(3-methanesulfonyl-1H-indazol-5-yl)-methanone] the value was 0.01 to 0.1 µM. As for `COc1ccc([C@@H]2CCCN2C(=O)c2cnc3[nH]nc(C)c3c2)cc1` [compound 221, [(S)-2-(4-Methoxy-phenyl)-pyrrolidin-1-yl]-(3-methyl-1H-pyrazolo[3,4-b]pyridin-5-yl)-methanone], the IC50 (read-out: IC50) is less than 0.01 µM. Consider `COc1cccc([C@@H]2CCCN2C(=O)c2cnc3[nH]nc(C)c3c2)c1` [compound 222, [(S)-2-(3-Methoxy-phenyl)-pyrrolidin-1-yl]-(3-methyl-1H-pyrazolo[3,4-b]pyridin-5-yl)-methanone], for which, under “read-out: IC50”, the IC50 lay in the range of 0.1 to 1 µM. Still for that read-out and setting: for `COc1ccc([C@H]2CCCN2C(=O)c2cnc3[nH]nc(C)c3c2)cc1` [compound 223, [(R)-2-(4-Methoxy-phenyl)-pyrrolidin-1-yl]-(3-methyl-1H-pyrazolo[3,4-b]pyridin-5-yl)-methanone] the value was 1 to 10 µM; for `COc1cccc([C@H]2CCCN2C(=O)c2cnc3[nH]nc(C)c3c2)c1` [compound 224, [(R)-2-(3-Methoxy-phenyl)-pyrrolidin-1-yl]-(3-methyl-1H-pyrazolo[3,4-b]pyridin-5-yl)-methanone], 1 to 10 µM.
